Experimental data from ChEMBL document CHEMBL1151469, “Cytotoxic activity of N-chlorotaurine on Acanthamoeba spp” (Antimicrob Agents Chemother, 2008).
Calls of active or inactive are those of the source. The rule behind the calls is not given here.

Columns and labels:
Acanthamoeba polyphaga [1] = assay: Amoebicidal activity against Trophozoites of Acanthamoeba polyphaga 5SU assessed as increase in cell killing at 10 mM in phosphate buffered saline at pH 7 within 3 hrs by hemocytometer using trypan blue stain in presence of 34 mM ammonium chloride; format: functional, organism-based
Acanthamoeba hatchetti [2] = assay: Amoebicidal activity against Trophozoites of Acanthamoeba hatchetti 11DS in peptone yeast extract glucose medium at pH 7 after 24 hrs by hemocytometer using trypan blue stain; format: functional, organism-based
Acanthamoeba hatchetti [3] = assay: Amoebicidal activity against Trophozoites of Acanthamoeba hatchetti 11DS at 55 mM in phosphate buffered saline at pH 7 after 1 hr by hemocytometer using trypan blue staining in presence of 190 mM ammonium chloride; format: functional, organism-based
Acanthamoeba polyphaga [4] = assay: Amoebicidal activity against Trophozoites of Acanthamoeba polyphaga 5SU assessed as log reduction in cell count at 10 mM in phosphate buffered saline at pH 5 after 1 hr by hemocytometer using trypan blue staining; format: functional, organism-based
Acanthamoeba polyphaga [5] = assay: Amoebicidal activity against Trophozoites of Acanthamoeba polyphaga 5SU assessed as increase in reduction in cell count at 20 mM in peptone yeast extract glucose medium at pH 7 after 6 hrs by hemocytometer using trypan blue stain in presence of 68 mM ammonium chloride; format: functional, organism-based
Acanthamoeba hatchetti [6] = assay: Amoebicidal activity against Trophozoites of Acanthamoeba hatchetti 11DS assessed as killing time at 10 mM in phosphate buffered saline at pH 5 by hemocytometer using trypan blue stain in presence of 290 mM ammonium chloride; format: functional
Acanthamoeba polyphaga [7] = assay: Amoebicidal activity against Trophozoites of Acanthamoeba polyphaga 5SU assessed as log reduction in cell count at 10 mM in phosphate buffered saline at pH 5 after 1 hr by hemocytometer using trypan blue stain in presence of 160 mM beta-alanine; format: functional, organism-based
Acanthamoeba hatchetti [8] = assay: Amoebicidal activity against Trophozoites of Acanthamoeba hatchetti 11DS assessed as increase in reduction in cell count at 20 mM in peptone yeast extract glucose medium at pH 7 after 6 hrs by hemocytometer using trypan blue stain in presence of 68 mM ammonium chloride; format: functional, organism-based
Acanthamoeba polyphaga [9] = assay: Amoebicidal activity against Trophozoites of Acanthamoeba polyphaga 5SU assessed as killing time at 20 mM in peptone yeast extract glucose medium at pH 7 by hemocytometer using trypan blue stain; format: functional
Acanthamoeba castellanii [10] = assay: Amoebicidal activity against excysted trophozoites of Acanthamoeba castellanii 4CL at 55 mM in peptone yeast extract glucose medium after 24 hrs by hemocytometer using trypan blue stain; format: functional
Acanthamoeba hatchetti [11] = assay: Amoebicidal activity against Trophozoites of Acanthamoeba hatchetti 11DS assessed as log reduction in cell count at 10 mM in phosphate buffered saline at pH 7 after 6 hrs by hemocytometer using trypan blue stain; format: functional
Acanthamoeba hatchetti [12] = assay: Amoebicidal activity against Trophozoites of Acanthamoeba hatchetti 11DS in peptone yeast extract glucose medium at pH 7 after 24 hrs by hemocytometer using trypan blue stain in presence of 68 mM ammonium chloride; format: functional, organism-based
Acanthamoeba castellanii [13] = assay: Amoebicidal activity against Trophozoites of Acanthamoeba castellanii 40AB assessed as log reduction in cell count at 20 mM in peptone yeast extract glucose medium at pH 7 after 24 hrs by hemocytometer using trypan blue stain; format: functional
Acanthamoeba polyphaga [14] = assay: Amoebicidal activity against Trophozoites of Acanthamoeba polyphaga 5SU assessed as rounding of cells at 55 mM in phosphate buffered saline at pH 7 after 15 mins by hemocytometer using trypan blue stain; format: functional, organism-based
Acanthamoeba polyphaga [15] = assay: Amoebicidal activity against Trophozoites of Acanthamoeba polyphaga 5SU in peptone yeast extract glucose medium at pH 7 after 24 hrs by hemocytometer using trypan blue stain in presence of 68 mM ammonium chloride; format: functional, organism-based
Acanthamoeba polyphaga [16] = assay: Amoebicidal activity against Trophozoites of Acanthamoeba polyphaga 5SU in peptone yeast extract glucose medium at pH 7 after 24 hrs by hemocytometer using trypan blue stain; format: functional, organism-based
Acanthamoeba polyphaga [17] = assay: Amoebicidal activity against Trophozoites of Acanthamoeba polyphaga 5SU assessed as reduction killing time at 55 mM in phosphate buffered saline at pH 7 by hemocytometer using trypan blue stain; format: functional, organism-based
Acanthamoeba polyphaga [18] = assay: Amoebicidal activity against Trophozoites of Acanthamoeba polyphaga 5SU assessed as reduction in killing time at 10 mM in phosphate buffered saline at pH 5 by hemocytometer using trypan blue stain in presence of 160 mM beta-alanine; format: functional, organism-based
Acanthamoeba hatchetti [19] = assay: Amoebicidal activity against Trophozoites of Acanthamoeba hatchetti 11DS assessed as increase in reduction in cell count at 20 mM in peptone yeast extract glucose medium at pH 7 after 6 hrs by hemocytometer using trypan blue stain in presence of 580 mM ammonium chloride; format: functional, organism-based
Acanthamoeba hatchetti [20] = assay: Amoebicidal activity against Trophozoites of Acanthamoeba hatchetti 11DS in phosphate buffered saline at pH 7 after 6 hrs by hemocytometer using trypan blue stain; format: functional, organism-based
Acanthamoeba hatchetti [21] = assay: Amoebicidal activity against Trophozoites of Acanthamoeba hatchetti 11DS in phosphate buffered saline at pH 7 after 24 hrs by hemocytometer using trypan blue stain in presence of 34 mM ammonium chloride; format: functional, organism-based
Acanthamoeba castellanii [22] = assay: Amoebicidal activity against Trophozoites of Acanthamoeba castellanii 40AB assessed as log reduction in cell count at 10 mM in phosphate buffered saline at pH 7 after 6 hrs by hemocytometer using trypan blue stain; format: functional
Acanthamoeba castellanii [23] = assay: Amoebicidal activity against excysted trophozoites of Acanthamoeba castellanii 4CL at 55 mM in peptone yeast extract glucose medium after 11 days by hemocytometer using trypan blue stain; format: functional
Acanthamoeba hatchetti [24] = assay: Amoebicidal activity against Trophozoites of Acanthamoeba hatchetti 11DS assessed as reduction in cell count at 10 mM in phosphate buffered saline at pH 7 within 1 hr by hemocytometer using trypan blue stain in presence of 290 mM ammonium chloride; format: functional, organism-based
Acanthamoeba hatchetti [25] = assay: Amoebicidal activity against Trophozoites of Acanthamoeba hatchetti 11DS assessed as complete loss of viability at 55 mM in phosphate buffered saline after 24 hrs by hemocytometer using trypan blue stain in presence of 190 mM ammonium chloride; format: functional, organism-based
Acanthamoeba hatchetti [26] = assay: Amoebicidal activity against excysted trophozoites of Acanthamoeba hatchetti 11DS at 55 mM in peptone yeast extract glucose medium after 6 days by hemocytometer using trypan blue stain; format: functional
Acanthamoeba polyphaga [27] = assay: Amoebicidal activity against excysted trophozoites of Acanthamoeba polyphaga 5SU at 55 mM in peptone yeast extract glucose medium after 6 days by hemocytometer using trypan blue stain; format: functional
Acanthamoeba polyphaga [28] = assay: Amoebicidal activity against excysted trophozoites of Acanthamoeba polyphaga 5SU at 55 mM in peptone yeast extract glucose medium after 24 hrs by hemocytometer using trypan blue stain; format: functional
Acanthamoeba hatchetti [29] = assay: Amoebicidal activity against Trophozoites of Acanthamoeba hatchetti 11DS assessed as complete killing time at 55 mM in phosphate buffered saline at pH 7 after 3 hrs by hemocytometer using trypan blue stain in presence of 190 mM ammonium chloride; format: functional, organism-based
Acanthamoeba polyphaga [30] = assay: Amoebicidal activity against excysted trophozoites of Acanthamoeba polyphaga 5SU at 55 mM in peptone yeast extract glucose medium after 4 days by hemocytometer using trypan blue stain; format: functional
Acanthamoeba hatchetti [31] = assay: Amoebicidal activity against Trophozoites of Acanthamoeba hatchetti 11DS in peptone yeast extract glucose medium at pH 7 after 1 hr by hemocytometer using trypan blue stain in presence of 68 mM ammonium chloride; format: functional, organism-based
Acanthamoeba polyphaga [32] = assay: Amoebicidal activity against Trophozoites of Acanthamoeba polyphaga 5SU assessed as increase in reduction in cell count at 20 mM in peptone yeast extract glucose medium at pH 7 after 6 hrs by hemocytometer using trypan blue stain; format: functional, organism-based
Acanthamoeba hatchetti [33] = assay: Amoebicidal activity against Trophozoites of Acanthamoeba hatchetti 11DS in phosphate buffered saline at pH 7 after 1 hr by hemocytometer using trypan blue stain in presence of 34 mM ammonium chloride; format: functional, organism-based

With O=S(=O)(O)CCNCl the Activity (Acanthamoeba polyphaga [1]) was “Active”, the EC50 (Acanthamoeba hatchetti [2]) was 7.38 mM and the Activity (Acanthamoeba hatchetti [3]) was “inactive”. For the same molecule, the Activity (Acanthamoeba polyphaga [4]) was “Active”, the Activity (Acanthamoeba polyphaga [5]) was “inactive” and the Activity (Acanthamoeba hatchetti [6]) was 24 h. For the same molecule, the Activity (Acanthamoeba polyphaga [7]) was “Active”, the Activity (Acanthamoeba hatchetti [8]) was “Active” and the Activity (Acanthamoeba polyphaga [9]) was 36 h. The Activity (Acanthamoeba castellanii [10]) was 0, the Activity (Acanthamoeba hatchetti [11]) was 2 and the EC50 (Acanthamoeba hatchetti [12]) was 10.2 mM. The Activity (Acanthamoeba castellanii [13]) was 2, the Activity (Acanthamoeba polyphaga [14]) was “Active” and the EC50 (Acanthamoeba polyphaga [15]) was 10.2 mM. The EC50 (Acanthamoeba polyphaga [16]) was 8.1 mM, the Activity (Acanthamoeba polyphaga [17]) was “Active” and the Activity (Acanthamoeba polyphaga [18]) was “inactive”. For the same molecule, the Activity (Acanthamoeba hatchetti [19]) was “inactive”, the EC50 (Acanthamoeba hatchetti [20]) was 3.89 mM and the EC90 (Acanthamoeba hatchetti [20]) was 7.71 mM. The EC50 (Acanthamoeba hatchetti [21]) was 5.11 mM, the EC90 (Acanthamoeba hatchetti [21]) was 9.13 mM and the Activity (Acanthamoeba castellanii [22]) was 2. The Activity (Acanthamoeba castellanii [23]) was 100000, the Activity (Acanthamoeba hatchetti [24]) was “Active” and the Activity (Acanthamoeba hatchetti [25]) was “Active”. It also gave an Activity (Acanthamoeba hatchetti [26]) of 210000, an Activity (Acanthamoeba polyphaga [27]) of 18000 and an Activity (Acanthamoeba polyphaga [28]) of 1000. The Activity (Acanthamoeba hatchetti [29]) was “Active”, the Activity (Acanthamoeba polyphaga [30]) was 8000 and the EC50 (Acanthamoeba hatchetti [31]) was 13.9 mM. For the same molecule, the Activity (Acanthamoeba polyphaga [32]) was “Active” and the EC50 (Acanthamoeba hatchetti [33]) was 12.9 mM.
